# Calls of active or inactive are those of the source.
# Experiments:
# Phospholipase A2 = Phospholipase A2 (Homo sapiens, UniProt P04054); assay: PLA2 enzyme inhibitors, dose response, counter-screen for ATG4B inhibitor project, biochemical, set 2 (AID 588586); format: functional
# Cysteine protease ATG4B = biological target: T1, Cysteine protease ATG4B (Homo sapiens, UniProt Q9Y4P1); assay: ATG4B protease inhibitors, dose response, biochemical, fluorescence, set 2 (AID 588584); format: functional
# T1 sequence (Q9Y4P1 whole entry): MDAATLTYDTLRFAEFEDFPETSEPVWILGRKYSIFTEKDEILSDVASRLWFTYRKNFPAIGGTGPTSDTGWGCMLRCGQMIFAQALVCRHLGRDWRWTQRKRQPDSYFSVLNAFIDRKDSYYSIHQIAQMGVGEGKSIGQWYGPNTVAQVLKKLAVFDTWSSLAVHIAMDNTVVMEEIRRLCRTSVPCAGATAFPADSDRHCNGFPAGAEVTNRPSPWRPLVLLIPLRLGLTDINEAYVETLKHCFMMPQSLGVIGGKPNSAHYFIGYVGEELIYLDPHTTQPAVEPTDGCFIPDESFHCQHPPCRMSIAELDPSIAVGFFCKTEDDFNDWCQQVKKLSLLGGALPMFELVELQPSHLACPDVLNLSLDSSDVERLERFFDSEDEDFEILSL
# [1] = system: Streptococcus sp. 'group A'; assay: growth inhibition of control SK(-) GAS strain, dose response, counter-screen for streptokinase expression inhibitor project, luminescence, kanamycin, BacTiterGlo, confirmation (AID 1900); format: functional, organism-based
# Streptokinase A = biological target: T2, Streptokinase A (Streptococcus pyogenes serotype M1, UniProt P10520); assay: S. pyogenes streptokinase expression inhibitors, potency, dose response, plasminogen activation absorbance, OD405 (AID 1914); format: functional, Streptococcus pyogenes M1 GAS;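 note: secreted streptokinase activity via plasminogen activation per viability signal from cell pellet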
# T2 sequence (P10520 whole entry): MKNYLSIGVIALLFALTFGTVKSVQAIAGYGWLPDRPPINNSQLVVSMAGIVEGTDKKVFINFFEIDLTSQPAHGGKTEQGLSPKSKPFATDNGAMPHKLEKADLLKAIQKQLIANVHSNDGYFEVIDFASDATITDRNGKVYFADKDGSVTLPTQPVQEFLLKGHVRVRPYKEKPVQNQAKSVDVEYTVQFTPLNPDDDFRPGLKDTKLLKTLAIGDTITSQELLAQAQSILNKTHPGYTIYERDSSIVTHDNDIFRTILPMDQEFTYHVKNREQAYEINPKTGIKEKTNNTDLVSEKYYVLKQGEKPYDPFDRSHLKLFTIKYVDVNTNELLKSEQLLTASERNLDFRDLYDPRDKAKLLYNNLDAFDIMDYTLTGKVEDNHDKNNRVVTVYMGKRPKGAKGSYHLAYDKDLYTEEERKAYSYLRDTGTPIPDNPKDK
# Streptococcus = assay: Group A Streptococcus viability loss, dose response, counter-screen for streptokinase expression inhibitor project, luminescence, BacTiterGlo (AID 1915); format: functional, organism-based;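 note: potency for reduction of bacterial viability or growth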
# Caspase-3 = biological target: T3, Caspase-3 (Homo sapiens, UniProt P42574); format: functional;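 note: Dose-response selectivity test against caspase-3 for candidate inhibitors of sentrin-specific proteases (SENPs)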
# T3 sequence (P42574 whole entry): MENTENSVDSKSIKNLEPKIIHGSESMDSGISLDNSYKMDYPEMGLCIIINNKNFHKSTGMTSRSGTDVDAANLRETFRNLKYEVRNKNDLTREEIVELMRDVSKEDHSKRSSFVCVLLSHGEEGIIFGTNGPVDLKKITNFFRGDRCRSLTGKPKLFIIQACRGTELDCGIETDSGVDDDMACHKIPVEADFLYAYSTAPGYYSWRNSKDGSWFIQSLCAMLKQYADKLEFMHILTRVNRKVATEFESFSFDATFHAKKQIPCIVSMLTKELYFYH
# [2] = biological target: T4, Sentrin-specific protease 7 (Homo sapiens, UniProt Q9BQF6); format: functional;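 note: Luminescence-based dose-response confirmation of ultra-high-throughput screening hits, measuring inhibition of SENP7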
# T4 sequence (Q9BQF6 whole entry): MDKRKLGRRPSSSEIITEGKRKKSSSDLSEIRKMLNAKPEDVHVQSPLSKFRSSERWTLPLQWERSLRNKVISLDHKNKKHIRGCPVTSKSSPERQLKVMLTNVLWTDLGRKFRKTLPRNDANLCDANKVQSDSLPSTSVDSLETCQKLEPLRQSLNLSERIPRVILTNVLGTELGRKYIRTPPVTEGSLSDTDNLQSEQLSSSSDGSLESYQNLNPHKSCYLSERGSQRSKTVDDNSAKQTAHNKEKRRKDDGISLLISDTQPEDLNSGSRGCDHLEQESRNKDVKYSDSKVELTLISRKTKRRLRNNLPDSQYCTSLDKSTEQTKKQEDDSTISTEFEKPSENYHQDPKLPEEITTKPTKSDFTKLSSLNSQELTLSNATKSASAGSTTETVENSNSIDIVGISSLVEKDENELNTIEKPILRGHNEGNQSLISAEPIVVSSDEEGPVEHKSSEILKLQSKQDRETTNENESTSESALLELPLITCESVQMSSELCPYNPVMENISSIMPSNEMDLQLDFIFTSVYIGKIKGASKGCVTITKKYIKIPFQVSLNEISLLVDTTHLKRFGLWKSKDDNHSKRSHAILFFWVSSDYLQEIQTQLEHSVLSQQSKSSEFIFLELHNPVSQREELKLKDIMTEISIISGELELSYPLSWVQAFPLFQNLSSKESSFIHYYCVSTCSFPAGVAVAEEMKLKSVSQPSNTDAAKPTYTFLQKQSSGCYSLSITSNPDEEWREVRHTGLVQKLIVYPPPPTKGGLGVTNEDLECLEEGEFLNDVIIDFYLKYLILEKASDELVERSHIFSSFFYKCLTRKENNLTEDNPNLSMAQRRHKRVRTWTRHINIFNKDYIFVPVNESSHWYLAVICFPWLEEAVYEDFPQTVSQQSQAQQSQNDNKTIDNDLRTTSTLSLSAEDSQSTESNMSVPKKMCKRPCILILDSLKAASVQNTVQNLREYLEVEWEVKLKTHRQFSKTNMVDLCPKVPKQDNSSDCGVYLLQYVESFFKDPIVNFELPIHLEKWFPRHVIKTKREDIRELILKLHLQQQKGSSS
# [3] = biological target: T5, Sentrin-specific protease 6 (Homo sapiens, UniProt Q9GZR1); format: functional;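 note: Luminescence-based dose-response confirmatory assay of SENP6 inhibition, following up an ultra-high-throughput screen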
# T5 sequence (Q9GZR1 whole entry): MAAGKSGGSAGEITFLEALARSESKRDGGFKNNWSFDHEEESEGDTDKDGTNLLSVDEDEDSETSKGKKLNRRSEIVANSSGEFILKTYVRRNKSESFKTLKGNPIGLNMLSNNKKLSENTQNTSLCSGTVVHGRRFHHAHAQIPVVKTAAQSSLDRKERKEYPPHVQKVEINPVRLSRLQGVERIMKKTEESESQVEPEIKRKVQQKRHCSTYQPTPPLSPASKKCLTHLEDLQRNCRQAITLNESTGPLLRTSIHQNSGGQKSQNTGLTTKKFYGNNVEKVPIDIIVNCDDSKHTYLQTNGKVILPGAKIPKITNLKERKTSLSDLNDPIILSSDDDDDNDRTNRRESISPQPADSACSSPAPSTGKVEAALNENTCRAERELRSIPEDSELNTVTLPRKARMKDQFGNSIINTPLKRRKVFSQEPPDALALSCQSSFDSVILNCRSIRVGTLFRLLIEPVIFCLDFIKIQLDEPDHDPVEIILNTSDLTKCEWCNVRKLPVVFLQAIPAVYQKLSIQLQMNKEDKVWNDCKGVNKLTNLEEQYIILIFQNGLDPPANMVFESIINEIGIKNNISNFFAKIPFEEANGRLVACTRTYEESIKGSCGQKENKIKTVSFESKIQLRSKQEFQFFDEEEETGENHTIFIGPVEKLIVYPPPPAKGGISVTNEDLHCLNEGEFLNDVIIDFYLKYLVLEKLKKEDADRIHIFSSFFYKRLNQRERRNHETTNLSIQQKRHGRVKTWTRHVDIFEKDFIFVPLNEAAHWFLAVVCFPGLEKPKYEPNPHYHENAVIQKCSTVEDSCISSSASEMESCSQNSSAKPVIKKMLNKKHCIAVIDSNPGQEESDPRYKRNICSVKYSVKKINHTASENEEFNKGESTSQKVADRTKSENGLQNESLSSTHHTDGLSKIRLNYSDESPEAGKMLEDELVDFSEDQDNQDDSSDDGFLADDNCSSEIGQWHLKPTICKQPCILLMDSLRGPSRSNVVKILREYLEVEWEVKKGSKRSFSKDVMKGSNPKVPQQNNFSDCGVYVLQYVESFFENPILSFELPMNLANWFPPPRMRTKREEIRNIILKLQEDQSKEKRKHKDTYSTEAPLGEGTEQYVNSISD
# [4] = biological target: T6, Sentrin-specific protease 8 (Homo sapiens, UniProt Q96LD8); format: functional;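 note: luminescence read-out of SENP8 inhibition, dose-response confirmation following an ultra-high-throughput screen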
# T6 sequence (Q96LD8 whole entry): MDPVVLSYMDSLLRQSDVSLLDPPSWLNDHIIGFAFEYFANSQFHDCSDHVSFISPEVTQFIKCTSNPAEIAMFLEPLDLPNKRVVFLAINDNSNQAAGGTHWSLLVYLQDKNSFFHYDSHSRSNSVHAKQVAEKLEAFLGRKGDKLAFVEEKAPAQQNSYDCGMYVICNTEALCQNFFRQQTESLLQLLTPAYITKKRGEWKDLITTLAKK
# HeLa = assay: HeLa cell cytotoxicity, dose response, cytotoxicity control for MITF activator project, CellTiter-Glo luminescence, cherry-pick samples (AID 540259); format: functional, cell-based; conditions: Homo sapiens
# [5] = biological target: T7, Tyrosine-protein phosphatase non-receptor type 7 (Homo sapiens, UniProt P35236); format: functional
# T7 sequence (P35236 whole entry): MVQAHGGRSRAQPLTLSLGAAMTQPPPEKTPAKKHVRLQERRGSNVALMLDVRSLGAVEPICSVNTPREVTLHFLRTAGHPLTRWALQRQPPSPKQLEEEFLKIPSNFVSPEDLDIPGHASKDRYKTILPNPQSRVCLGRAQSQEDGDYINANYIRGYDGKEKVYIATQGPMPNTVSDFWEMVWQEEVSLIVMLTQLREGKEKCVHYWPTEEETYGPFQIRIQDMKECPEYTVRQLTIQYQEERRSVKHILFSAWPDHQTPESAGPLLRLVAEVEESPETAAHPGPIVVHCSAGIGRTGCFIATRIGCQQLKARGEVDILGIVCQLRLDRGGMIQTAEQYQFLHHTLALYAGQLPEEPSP
# [6] = biological target: T8, Tyrosine-protein phosphatase non-receptor type 22 (Homo sapiens, UniProt Q9Y2R2); format: functional
# T8 sequence (Q9Y2R2 whole entry): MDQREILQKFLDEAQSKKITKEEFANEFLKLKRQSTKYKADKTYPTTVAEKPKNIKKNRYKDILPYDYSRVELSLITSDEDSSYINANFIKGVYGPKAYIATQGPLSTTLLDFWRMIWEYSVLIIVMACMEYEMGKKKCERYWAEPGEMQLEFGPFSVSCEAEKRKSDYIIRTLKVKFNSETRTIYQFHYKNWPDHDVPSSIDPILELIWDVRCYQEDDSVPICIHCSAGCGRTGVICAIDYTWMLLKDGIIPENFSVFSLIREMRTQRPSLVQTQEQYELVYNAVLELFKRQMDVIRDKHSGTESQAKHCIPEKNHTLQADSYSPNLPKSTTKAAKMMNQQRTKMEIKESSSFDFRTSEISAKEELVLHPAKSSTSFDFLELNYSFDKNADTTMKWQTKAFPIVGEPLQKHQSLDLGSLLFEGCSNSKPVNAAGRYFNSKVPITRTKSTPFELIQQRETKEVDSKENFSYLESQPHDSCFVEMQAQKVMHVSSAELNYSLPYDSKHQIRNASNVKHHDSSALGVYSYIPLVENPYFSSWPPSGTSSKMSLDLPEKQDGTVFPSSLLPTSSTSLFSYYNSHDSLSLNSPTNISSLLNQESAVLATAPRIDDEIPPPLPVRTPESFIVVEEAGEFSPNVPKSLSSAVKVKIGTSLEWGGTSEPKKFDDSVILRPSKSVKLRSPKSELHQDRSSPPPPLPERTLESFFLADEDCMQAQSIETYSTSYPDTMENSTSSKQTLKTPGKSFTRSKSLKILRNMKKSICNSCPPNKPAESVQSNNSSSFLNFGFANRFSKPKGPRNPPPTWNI
# [7] = biological target: T8, Tyrosine-protein phosphatase non-receptor type 22; format: functional; remark: listed apart in the source
# [8] = biological target: Delta-type opioid receptor (Homo sapiens, UniProt P41143); assay: Counterscreen for agonists of heterodimerization of the mu 1 (OPRM1) and delta 1 (OPRD1) opioid receptors: Luminescence-based cell-based high throughput dose response assay to identify agonists of OPRD1 homodimerization. [Related pubchem assays (depositor defined):AID504326, AID504355, AID504692, AID504904, AID504905]; format: functional
# Sequence of Delta-type opioid receptor (P41143 whole entry): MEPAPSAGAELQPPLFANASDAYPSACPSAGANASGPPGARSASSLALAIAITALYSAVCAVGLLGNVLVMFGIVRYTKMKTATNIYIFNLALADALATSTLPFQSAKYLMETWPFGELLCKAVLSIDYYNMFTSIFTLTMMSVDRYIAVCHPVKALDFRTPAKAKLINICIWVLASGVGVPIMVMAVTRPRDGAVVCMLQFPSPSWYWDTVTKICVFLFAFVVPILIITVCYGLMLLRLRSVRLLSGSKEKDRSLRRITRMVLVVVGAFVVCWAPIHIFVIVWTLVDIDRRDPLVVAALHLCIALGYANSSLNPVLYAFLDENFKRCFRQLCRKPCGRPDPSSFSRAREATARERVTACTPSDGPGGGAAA
# Mu-type opioid receptor = Mu-type opioid receptor (Homo sapiens, UniProt P35372); assay: Counterscreen for agonists of heterodimerization of the mu 1 (OPRM1) and delta 1 (OPRD1) opioid receptors: Luminescence-based cell-based high throughput dose response assay to identify agonists of OPRM1 homodimerization.; format: functional;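 note: U2OS cells expressing OPRM1 and beta-arrestin as split beta-galactosidase partners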
# Sequence of Mu-type opioid receptor (P35372 whole entry): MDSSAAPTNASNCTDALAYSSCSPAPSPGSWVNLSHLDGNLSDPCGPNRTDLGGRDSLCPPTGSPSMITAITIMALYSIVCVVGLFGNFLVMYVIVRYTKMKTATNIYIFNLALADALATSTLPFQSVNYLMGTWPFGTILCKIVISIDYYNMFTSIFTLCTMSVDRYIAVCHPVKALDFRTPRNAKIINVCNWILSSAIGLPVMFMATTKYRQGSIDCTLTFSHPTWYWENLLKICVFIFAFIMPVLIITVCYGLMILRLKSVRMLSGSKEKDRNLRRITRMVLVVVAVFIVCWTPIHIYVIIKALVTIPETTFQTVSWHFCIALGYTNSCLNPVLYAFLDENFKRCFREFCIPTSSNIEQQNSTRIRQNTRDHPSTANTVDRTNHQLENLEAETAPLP
# [9] = biological target: 5-hydroxytryptamine receptor 5A (Homo sapiens, UniProt P47898); assay: Counterscreen for agonists of OPRM1-OPRD1 heterodimerization: luminescence-based cell-based high throughput dose response assay to identify agonists of 5-hydroxytryptamine (serotonin) 5A receptor (HTR5A). [Related pubchem assays (depositor defined):AID504326, AID504355, AID504692, AID504904, AID504905]; format: functional
# Sequence of 5-hydroxytryptamine receptor 5A (P47898 whole entry): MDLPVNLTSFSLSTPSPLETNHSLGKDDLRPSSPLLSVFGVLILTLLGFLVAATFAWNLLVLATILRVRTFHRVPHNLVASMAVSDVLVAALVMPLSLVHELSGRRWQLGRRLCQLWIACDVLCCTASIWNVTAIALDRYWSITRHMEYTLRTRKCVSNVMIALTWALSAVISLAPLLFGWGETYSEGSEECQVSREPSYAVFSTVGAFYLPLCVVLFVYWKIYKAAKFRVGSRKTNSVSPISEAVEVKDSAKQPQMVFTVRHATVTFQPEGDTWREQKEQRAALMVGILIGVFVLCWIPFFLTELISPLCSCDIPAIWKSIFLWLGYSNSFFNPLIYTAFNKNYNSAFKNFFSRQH
# Sequence of Phospholipase A2 (P04054 whole entry): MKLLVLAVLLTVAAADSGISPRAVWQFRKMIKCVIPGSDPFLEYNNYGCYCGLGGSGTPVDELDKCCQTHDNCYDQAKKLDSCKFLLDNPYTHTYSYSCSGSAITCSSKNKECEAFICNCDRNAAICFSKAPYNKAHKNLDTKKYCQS
structure (smiles),measurement,setting,value
O=C(C1CCN(c2ncnc3c2nc2n3CCCCC2)CC1)N1CCN(c2cccc(Cl)c2)CC1,IC50,Phospholipase A2,11.1 µM (active)
same,IC50,Cysteine protease ATG4B,22.6 µM (inactive)
Cc1csc2nc(CSc3nc4ccccc4o3)c(Br)n12,EC50,[1],45.5 µM (active)
same,EC50,Streptokinase A,> 150 µM (not active)
same,EC50,Streptococcus,> 150 µM (not active)
same,IC50,Caspase-3,49.4 µM (active)
same,IC50,[2],16.2 µM (active)
same,IC50,[3],12.5 µM (active)
same,IC50,[4],> 100 µM (inactive)
same,AC50,HeLa,42.3 µM (active)
CS(=O)(=O)N1CCc2ccc(NC(=O)C3CCCO3)cc2C1 (centres undefined),IC50,[5],> 79.4 µM (inactive)
same,IC50,[6],> 79.4 µM (inactive)
same,IC50,[7],> 79.4 µM (inactive)
CN(C)C(CNC(=O)c1cc2ccccc2o1)c1ccco1 (centres undefined),EC50,[8],> 92.5 µM (inactive)
same,EC50,Mu-type opioid receptor,> 92.5 µM (inactive)
same,EC50,[9],> 92.5 µM (inactive)
COC(=O)N/N=C(\C)c1ccc2ccccc2c1OC(F)F,IC50,[5],> 79.4 µM (inactive)
same,IC50,[6],> 79.4 µM (inactive)
same,IC50,[7],> 79.4 µM (inactive)

# Reference: ChEMBL document CHEMBL1201862, “PubChem BioAssay data set” (2004)
